Source: ChEMBL document CHEMBL1201862, “PubChem BioAssay data set” (2004)
The source made the active and inactive calls. Rule as the data show it: actives have a measured IC50 and inactives only a lower limit.

Molecular target: Envelope glycoprotein gp160 (Human immunodeficiency virus 1, UniProt Q6QLK5)
Experiment: cell-free HIV fusion peptide-binding blockers – biochemical, uHTS, fluorescence dequenching, […] (AID 1986)

Envelope glycoprotein gp160, sequence (Q6QLK5 whole entry, the tested form may be a part): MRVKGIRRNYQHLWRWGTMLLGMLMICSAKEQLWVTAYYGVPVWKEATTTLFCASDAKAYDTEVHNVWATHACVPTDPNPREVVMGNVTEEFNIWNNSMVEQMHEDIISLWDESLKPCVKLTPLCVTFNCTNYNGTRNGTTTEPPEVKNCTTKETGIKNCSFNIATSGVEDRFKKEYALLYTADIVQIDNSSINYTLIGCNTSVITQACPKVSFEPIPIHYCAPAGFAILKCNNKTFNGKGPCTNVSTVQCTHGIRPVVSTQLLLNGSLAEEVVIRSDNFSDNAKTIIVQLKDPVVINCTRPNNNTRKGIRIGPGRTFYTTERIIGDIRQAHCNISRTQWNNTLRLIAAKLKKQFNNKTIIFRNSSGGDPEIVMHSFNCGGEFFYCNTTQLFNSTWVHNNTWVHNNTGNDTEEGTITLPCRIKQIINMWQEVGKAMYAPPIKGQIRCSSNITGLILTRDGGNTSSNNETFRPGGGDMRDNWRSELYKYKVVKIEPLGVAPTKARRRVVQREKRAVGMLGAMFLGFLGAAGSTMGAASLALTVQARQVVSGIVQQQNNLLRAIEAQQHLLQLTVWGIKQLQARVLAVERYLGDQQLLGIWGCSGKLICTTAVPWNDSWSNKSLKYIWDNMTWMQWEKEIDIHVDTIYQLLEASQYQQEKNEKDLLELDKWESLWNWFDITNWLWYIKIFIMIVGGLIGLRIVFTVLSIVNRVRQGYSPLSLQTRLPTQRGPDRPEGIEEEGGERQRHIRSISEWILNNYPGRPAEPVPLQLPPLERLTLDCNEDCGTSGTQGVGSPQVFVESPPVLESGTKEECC

Row | Structure (SMILES) | IC50
1 | COc1cccc(-c2coc3c(C)c4oc(=O)c(CCC(=O)O)c(C)c4cc23)c1 | 22.7 µM (active)
2 | COc1cc(NS(=O)(=O)c2ccc(Nc3nc(-c4ccccc4)cs3)cc2)nc(OC)n1 | 20.4 µM (active)
